Test system: KASUMI-2
Test: selective drug sensitivity score (sDSS, relative to normal bone marrow) (sDSS (score)); higher = more potent and effective on the cell line relative to normal bone marrow cells
Conditions: 72 h
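Also: ALL cell lines in 384-well plates, five doses spanning 10,000-fold, each plate scaled between vehicle and 100 µmol/L benzalkonium chloride controls, sDSS an adapted area-under-curve metric.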

| SMILES | selective drug sensitivity score |
| --- | --- |
| COC[C@H](NC(=O)c1cnc(C)s1)C(=O)N[C@@H](COC)C(=O)N[C@@H](Cc1ccccc1)C(=O)[C@@]1(C)CO1 [Oprozomib] (top concentration 2500 nM) | -1.1 |
| Cc1ccc(C(=O)N(CCCN)[C@@H](c2oc3cc(Cl)ccc3c(=O)c2Cc2ccccc2)C(C)C)cc1 (top concentration 100 nM) | 3.56 |
| CCn1c(C(=O)N(C2CC2)C2CC2)cc2c3c(ncn3C)c(Nc3cc(C)n(C)n3)nc21 (top concentration 10000 nM) | -4.36 |
| Nc1nc(Cl)nc2c1ncn2[C@@H]1O[C@H](CO)[C@@H](O)[C@@H]1F [Clofarabine] (top concentration 10000 nM) | 8.3 |
| Cc1ccc(C(=O)Nc2ccc(Oc3cc4cnn(C)c4cc3-c3cn[nH]c3)c(F)c2)c(=O)n1-c1ccc(F)cc1 [Merestinib] (top concentration 1000 nM) | -0.62 |
| Nc1ncn([C@@H]2O[C@H](CO)[C@@H](O)[C@H]2O)c(=O)n1 [Azacitidine] (top concentration 10000 nM) | -0.36 |
| CC(C)c1cc(-c2n[nH]c(=O)n2-c2ccc3c(ccn3C)c2)c(O)cc1O [Ganetespib] (top concentration 1000 nM) | 6.04 |
| C[C@]1(c2nc3c(C(N)=O)cccc3[nH]2)CCCN1 [Veliparib] (top concentration 10000 nM) | 2.82 |
| CC(=O)Nc1cccc(-n2c(=O)n(C3CC3)c(=O)c3c(Nc4ccc(I)cc4F)n(C)c(=O)c(C)c32)c1 [Trametinib] (top concentration 250 nM) | 5.86 |

Test system: MHH-CALL-2
Test: as above
Conditions: 72 h

| SMILES | selective drug sensitivity score |
| --- | --- |
| C/C=C1\NC(=O)[C@H]2CSSCC/C=C/[C@H](CC(=O)N[C@H](C(C)C)C(=O)N2)OC(=O)[C@H](C(C)C)NC1=O [Romidepsin] (top concentration 1000 nM) | 6.76 |
| CN(C)CCOc1ccc(/C(=C(/CCCl)c2ccccc2)c2ccccc2)cc1 [Toremifene] (top concentration 10000 nM) | 9.68 |
| CCCCc1nc2cc(/C=C/C(=O)NO)ccc2n1CCN(CC)CC [Pracinostat] (top concentration 10000 nM) | 8.98 |
| Cn1ncc(Cl)c1-c1cc(C(=O)N[C@H](CN)Cc2cccc(F)c2)sc1Cl [Afuresertib] (top concentration 1000 nM) | 7.36 |
| Cc1cc(-c2nc(-c3ccc(OC(F)(F)F)cc3)no2)nn1Cc1ccnc(N2CCN(C3CC3)CC2)c1 [BAY_87-2243] (top concentration 1000 nM) | 8.64 |
| CNc1nc(-c2ccc3c(N)n[nH]c3c2)cc(N2C[C@@H](C(=O)NC3CCCCC3)CC[C@H]2C)n1 (top concentration 10000 nM) | 6.16 |
| CN1CC[C@H](c2c(O)cc(O)c3c(=O)cc(-c4ccccc4Cl)oc23)[C@H](O)C1 [Alvocidib] (top concentration 10000 nM) | -3.5 |
| Cc1cc2c(C(C)C)c(O)c(O)c(C=O)c2c(O)c1-c1c(C)cc2c(C(C)C)c(O)c(O)c(C=O)c2c1O [AT-101] (top concentration 100000 nM) | 4.18 |
| Cc1ccc(C(=O)Nc2cccc(C(F)(F)F)c2)cc1Nc1nc(-c2cccnc2)nc2c1cnn2C [NVP-BHG712] (top concentration 10000 nM) | 5.28 |
| COC[C@H](NC(=O)c1cnc(C)s1)C(=O)N[C@@H](COC)C(=O)N[C@@H](Cc1ccccc1)C(=O)[C@@]1(C)CO1 [Oprozomib] (top concentration 2500 nM) | 0.4 |
| Cc1ccc(C(=O)N(CCCN)[C@@H](c2oc3cc(Cl)ccc3c(=O)c2Cc2ccccc2)C(C)C)cc1 (top concentration 100 nM) | 9.46 |
| CCn1c(C(=O)N(C2CC2)C2CC2)cc2c3c(ncn3C)c(Nc3cc(C)n(C)n3)nc21 (top concentration 10000 nM) | 3.44 |
| Nc1nc(Cl)nc2c1ncn2[C@@H]1O[C@H](CO)[C@@H](O)[C@@H]1F [Clofarabine] (top concentration 10000 nM) | 9.2 |
| Cc1ccc(C(=O)Nc2ccc(Oc3cc4cnn(C)c4cc3-c3cn[nH]c3)c(F)c2)c(=O)n1-c1ccc(F)cc1 [Merestinib] (top concentration 1000 nM) | 9.68 |
| Nc1ncn([C@@H]2O[C@H](CO)[C@@H](O)[C@H]2O)c(=O)n1 [Azacitidine] (top concentration 10000 nM) | 5.84 |
| CC(C)c1cc(-c2n[nH]c(=O)n2-c2ccc3c(ccn3C)c2)c(O)cc1O [Ganetespib] (top concentration 1000 nM) | -1.36 |
| C[C@]1(c2nc3c(C(N)=O)cccc3[nH]2)CCCN1 [Veliparib] (top concentration 10000 nM) | 5.02 |
| CC(=O)Nc1cccc(-n2c(=O)n(C3CC3)c(=O)c3c(Nc4ccc(I)cc4F)n(C)c(=O)c(C)c32)c1 [Trametinib] (top concentration 250 nM) | 2.96 |

Test system: MHH-CALL-4
Test: as above
Conditions: 72 h

| SMILES | selective drug sensitivity score |
| --- | --- |
| C/C=C1\NC(=O)[C@H]2CSSCC/C=C/[C@H](CC(=O)N[C@H](C(C)C)C(=O)N2)OC(=O)[C@H](C(C)C)NC1=O [Romidepsin] (top concentration 1000 nM) | 3.06 |
| CN(C)CCOc1ccc(/C(=C(/CCCl)c2ccccc2)c2ccccc2)cc1 [Toremifene] (top concentration 10000 nM) | 0.48 |
| CCCCc1nc2cc(/C=C/C(=O)NO)ccc2n1CCN(CC)CC [Pracinostat] (top concentration 10000 nM) | 6.28 |
| Cn1ncc(Cl)c1-c1cc(C(=O)N[C@H](CN)Cc2cccc(F)c2)sc1Cl [Afuresertib] (top concentration 1000 nM) | 5.06 |
| Cc1cc(-c2nc(-c3ccc(OC(F)(F)F)cc3)no2)nn1Cc1ccnc(N2CCN(C3CC3)CC2)c1 [BAY_87-2243] (top concentration 1000 nM) | 11.9 |
| CNc1nc(-c2ccc3c(N)n[nH]c3c2)cc(N2C[C@@H](C(=O)NC3CCCCC3)CC[C@H]2C)n1 (top concentration 10000 nM) | 3.46 |
| CN1CC[C@H](c2c(O)cc(O)c3c(=O)cc(-c4ccccc4Cl)oc23)[C@H](O)C1 [Alvocidib] (top concentration 10000 nM) | -3.8 |
| Cc1cc2c(C(C)C)c(O)c(O)c(C=O)c2c(O)c1-c1c(C)cc2c(C(C)C)c(O)c(O)c(C=O)c2c1O [AT-101] (top concentration 100000 nM) | 3.98 |
| Cc1ccc(C(=O)Nc2cccc(C(F)(F)F)c2)cc1Nc1nc(-c2cccnc2)nc2c1cnn2C [NVP-BHG712] (top concentration 10000 nM) | 1.18 |
| COC[C@H](NC(=O)c1cnc(C)s1)C(=O)N[C@@H](COC)C(=O)N[C@@H](Cc1ccccc1)C(=O)[C@@]1(C)CO1 [Oprozomib] (top concentration 2500 nM) | 1.4 |
| Cc1ccc(C(=O)N(CCCN)[C@@H](c2oc3cc(Cl)ccc3c(=O)c2Cc2ccccc2)C(C)C)cc1 (top concentration 100 nM) | 6.96 |
| CCn1c(C(=O)N(C2CC2)C2CC2)cc2c3c(ncn3C)c(Nc3cc(C)n(C)n3)nc21 (top concentration 10000 nM) | -1.56 |
| Nc1nc(Cl)nc2c1ncn2[C@@H]1O[C@H](CO)[C@@H](O)[C@@H]1F [Clofarabine] (top concentration 10000 nM) | 6.5 |
| Cc1ccc(C(=O)Nc2ccc(Oc3cc4cnn(C)c4cc3-c3cn[nH]c3)c(F)c2)c(=O)n1-c1ccc(F)cc1 [Merestinib] (top concentration 1000 nM) | -0.42 |
| Nc1ncn([C@@H]2O[C@H](CO)[C@@H](O)[C@H]2O)c(=O)n1 [Azacitidine] (top concentration 10000 nM) | 6.14 |
| CC(C)c1cc(-c2n[nH]c(=O)n2-c2ccc3c(ccn3C)c2)c(O)cc1O [Ganetespib] (top concentration 1000 nM) | -0.56 |
| C[C@]1(c2nc3c(C(N)=O)cccc3[nH]2)CCCN1 [Veliparib] (top concentration 10000 nM) | 6.72 |
| CC(=O)Nc1cccc(-n2c(=O)n(C3CC3)c(=O)c3c(Nc4ccc(I)cc4F)n(C)c(=O)c(C)c32)c1 [Trametinib] (top concentration 250 nM) | 0.06 |

From the supplement of paper PMC8967900
